How the values were obtained:
[1] = system: Tyrosine-protein kinase ABL1 (Homo sapiens), P00519 [F317L]; test: Inhibition of human phosphorylated ABL1 F317L mutant (S229 to K512 residues) expressed in mammalian expression system at 1 uM by Kinomescan method relative to control
[2] = target: Dual specificity protein kinase CLK1 (Homo sapiens) (UniProt P49759); test: Inhibition of wild-type human full length CLK1 (M1 to I484 residues) expressed in bacterial expression system at 1 uM by Kinomescan method relative to control
[3] = target: Casein kinase I isoform gamma-1 (Homo sapiens) (UniProt Q9HCP0); test: Inhibition of wild-type human partial length CSNK1G1 (T15 to S353 residues) expressed in bacterial expression system at 1 uM by Kinomescan method relative to control
[4] = target: Serine/threonine-protein kinase WNK1 (Homo sapiens) (UniProt Q9H4A3); test: Inhibition of wild-type human partial length WNK1 (Q194 to A490 residues) expressed in mammalian expression system at 1 uM by Kinomescan method relative to control
[5] = target: Maternal embryonic leucine zipper kinase (Homo sapiens) (UniProt Q14680); test: Inhibition of wild-type human full length MELK (M1 to V651 residues) expressed in bacterial expression system at 1 uM by Kinomescan method relative to control
[6] = target: Mitogen-activated protein kinase 10 (Homo sapiens) (UniProt P53779); test: Inhibition of wild-type human partial length JNK3 (V28 to Q422 residues) expressed in mammalian expression system at 1 uM by Kinomescan method relative to control
[7] = target: Calcium/calmodulin-dependent protein kinase kinase 2 (Homo sapiens) (UniProt Q96RR4); test: Inhibition of wild-type human partial length CAMKK2 (D65 to V471 residues) expressed in bacterial expression system at 1 uM by Kinomescan method relative to control
[8] = target: Mast/stem cell growth factor receptor Kit (Homo sapiens) (UniProt P10721); test: Inhibition of wild-type human partial length autoinhibited KIT (Y545 to D952 residues) expressed in mammalian expression system at 1 uM by Kinomescan method relative to control
[9] = target: G protein-coupled receptor kinase 4 (Homo sapiens) (UniProt P32298); test: Inhibition of wild-type human full length GRK4 (M1 to C578 residues) expressed in bacterial expression system at 1 uM by Kinomescan method relative to control
[10] = target: Citron Rho-interacting kinase (Homo sapiens) (UniProt O14578); test: Inhibition of wild-type human partial length CIT (M68 to E432 residues) expressed in bacterial expression system at 1 uM by Kinomescan method relative to control
[11] = target: CDK4/Cyclin D3 (Homo sapiens) (UniProt P11802+P30281); test: Inhibition of wild-type human full length CDK4/cyclinD3 (M1 to E303 residues) expressed in mammalian expression system at 1 uM by Kinomescan method relative to control
[12] = target: Cyclin-dependent kinase 2 (Homo sapiens) (UniProt P24941); test: Inhibition of wild-type human full length CDK2 (M1 to L298 residues) expressed in bacterial expression system at 1 uM by Kinomescan method relative to control
[13] = target: Mitogen-activated protein kinase kinase kinase 7 (Homo sapiens) (UniProt O43318); test: Inhibition of wild-type human partial length TAK1 (M1 to Q303 residues) expressed in mammalian expression system at 1 uM by Kinomescan method relative to control
[14] = target: Cyclin-dependent kinase 3 (Homo sapiens) (UniProt Q00526); test: Inhibition of wild-type human full length CDK3 (M1 to H305 residues) expressed in bacterial expression system at 1 uM by Kinomescan method relative to control
[15] = target: Tyrosine-protein kinase SYK (Homo sapiens) (UniProt P43405); test: Inhibition of wild-type human partial length SYK (D354 to N635 residues) expressed in bacterial expression system at 1 uM by Kinomescan method relative to control
[16] = target: High affinity nerve growth factor receptor (Homo sapiens) (UniProt P04629); test: Inhibition of wild-type human partial length TRKA (G475 to G790 residues) expressed in mammalian expression system at 1 uM by Kinomescan method relative to control
[17] = system: Tyrosine-protein kinase ABL1 (Homo sapiens), P00519 [F317I]; test: Inhibition of human non-phosphorylated ABL1 F317I mutant (S229 to K512 residues) expressed in mammalian expression system at 1 uM by Kinomescan method relative to control
[18] = target: Cyclin-dependent kinase 4 (Homo sapiens) (UniProt P11802); test: Inhibition of wild-type human full length CDK4 (M1 to E303 residues) expressed in mammalian expression system at 10 uM by Kinomescan method relative to control
[19] = target: Cytoplasmic tyrosine-protein kinase BMX (Homo sapiens) (UniProt P51813); test: Inhibition of wild-type human full length BMX (M1 to H675 residues) expressed in bacterial expression system at 10 uM by Kinomescan method relative to control
[20] = target: Peripheral plasma membrane protein CASK (Homo sapiens) (UniProt O14936); test: Inhibition of wild-type human partial length CASK (M1 to H315 residues) expressed in mammalian expression system at 10 uM by Kinomescan method relative to control
[21] = system: Tyrosine-protein kinase ABL1 (Homo sapiens), P00519 [H396P]; test: Inhibition of human phosphorylated ABL1 H396P mutant (S229 to K512 residues) expressed in mammalian expression system at 10 uM by Kinomescan method relative to control
[22] = target: Interleukin-1 receptor-associated kinase 1 (Homo sapiens) (UniProt P51617); test: Inhibition of wild-type human partial length IRAK1 (R194 to S712 residues) expressed in mammalian expression system at 10 uM by Kinomescan method relative to control
[23] = target: Protein kinase C epsilon type (Homo sapiens) (UniProt Q02156); test: Inhibition of wild-type human partial length PRKCE (A378 to P737 residues) expressed in mammalian expression system at 10 uM by Kinomescan method relative to control
[24] = system: Phosphatidylinositol 4,5-bisphosphate 3-kinase catalytic subunit alpha isoform (Homo sapiens), P42336 [M1043I]; test: Inhibition of human partial length PIK3CA M1043I mutant (R108 to N1068 residues) expressed in mammalian expression system at 10 uM by Kinomescan method relative to control
[25] = target: Serine/threonine-protein kinase SBK1 (Homo sapiens) (UniProt Q52WX2); test: Inhibition of wild-type human partial length SBK1 (P23 to P348 residues) expressed in mammalian expression system at 10 uM by Kinomescan method relative to control
[26] = target: Misshapen-like kinase 1 (Homo sapiens) (UniProt Q8N4C8); test: Inhibition of wild-type human partial length MINK (M1 to K312 residues) expressed in mammalian expression system at 10 uM by Kinomescan method relative to control
[27] = target: Homeodomain-interacting protein kinase 1 (Homo sapiens) (UniProt Q86Z02); test: Inhibition of wild-type human partial length HIPK1 (M146 to I555 residues) expressed in mammalian expression system at 10 uM by Kinomescan method relative to control

Chain of Serine/threonine-protein kinase WNK1 (Homo sapiens) (Q9H4A3 whole entry, looked up, the tested form may be a part): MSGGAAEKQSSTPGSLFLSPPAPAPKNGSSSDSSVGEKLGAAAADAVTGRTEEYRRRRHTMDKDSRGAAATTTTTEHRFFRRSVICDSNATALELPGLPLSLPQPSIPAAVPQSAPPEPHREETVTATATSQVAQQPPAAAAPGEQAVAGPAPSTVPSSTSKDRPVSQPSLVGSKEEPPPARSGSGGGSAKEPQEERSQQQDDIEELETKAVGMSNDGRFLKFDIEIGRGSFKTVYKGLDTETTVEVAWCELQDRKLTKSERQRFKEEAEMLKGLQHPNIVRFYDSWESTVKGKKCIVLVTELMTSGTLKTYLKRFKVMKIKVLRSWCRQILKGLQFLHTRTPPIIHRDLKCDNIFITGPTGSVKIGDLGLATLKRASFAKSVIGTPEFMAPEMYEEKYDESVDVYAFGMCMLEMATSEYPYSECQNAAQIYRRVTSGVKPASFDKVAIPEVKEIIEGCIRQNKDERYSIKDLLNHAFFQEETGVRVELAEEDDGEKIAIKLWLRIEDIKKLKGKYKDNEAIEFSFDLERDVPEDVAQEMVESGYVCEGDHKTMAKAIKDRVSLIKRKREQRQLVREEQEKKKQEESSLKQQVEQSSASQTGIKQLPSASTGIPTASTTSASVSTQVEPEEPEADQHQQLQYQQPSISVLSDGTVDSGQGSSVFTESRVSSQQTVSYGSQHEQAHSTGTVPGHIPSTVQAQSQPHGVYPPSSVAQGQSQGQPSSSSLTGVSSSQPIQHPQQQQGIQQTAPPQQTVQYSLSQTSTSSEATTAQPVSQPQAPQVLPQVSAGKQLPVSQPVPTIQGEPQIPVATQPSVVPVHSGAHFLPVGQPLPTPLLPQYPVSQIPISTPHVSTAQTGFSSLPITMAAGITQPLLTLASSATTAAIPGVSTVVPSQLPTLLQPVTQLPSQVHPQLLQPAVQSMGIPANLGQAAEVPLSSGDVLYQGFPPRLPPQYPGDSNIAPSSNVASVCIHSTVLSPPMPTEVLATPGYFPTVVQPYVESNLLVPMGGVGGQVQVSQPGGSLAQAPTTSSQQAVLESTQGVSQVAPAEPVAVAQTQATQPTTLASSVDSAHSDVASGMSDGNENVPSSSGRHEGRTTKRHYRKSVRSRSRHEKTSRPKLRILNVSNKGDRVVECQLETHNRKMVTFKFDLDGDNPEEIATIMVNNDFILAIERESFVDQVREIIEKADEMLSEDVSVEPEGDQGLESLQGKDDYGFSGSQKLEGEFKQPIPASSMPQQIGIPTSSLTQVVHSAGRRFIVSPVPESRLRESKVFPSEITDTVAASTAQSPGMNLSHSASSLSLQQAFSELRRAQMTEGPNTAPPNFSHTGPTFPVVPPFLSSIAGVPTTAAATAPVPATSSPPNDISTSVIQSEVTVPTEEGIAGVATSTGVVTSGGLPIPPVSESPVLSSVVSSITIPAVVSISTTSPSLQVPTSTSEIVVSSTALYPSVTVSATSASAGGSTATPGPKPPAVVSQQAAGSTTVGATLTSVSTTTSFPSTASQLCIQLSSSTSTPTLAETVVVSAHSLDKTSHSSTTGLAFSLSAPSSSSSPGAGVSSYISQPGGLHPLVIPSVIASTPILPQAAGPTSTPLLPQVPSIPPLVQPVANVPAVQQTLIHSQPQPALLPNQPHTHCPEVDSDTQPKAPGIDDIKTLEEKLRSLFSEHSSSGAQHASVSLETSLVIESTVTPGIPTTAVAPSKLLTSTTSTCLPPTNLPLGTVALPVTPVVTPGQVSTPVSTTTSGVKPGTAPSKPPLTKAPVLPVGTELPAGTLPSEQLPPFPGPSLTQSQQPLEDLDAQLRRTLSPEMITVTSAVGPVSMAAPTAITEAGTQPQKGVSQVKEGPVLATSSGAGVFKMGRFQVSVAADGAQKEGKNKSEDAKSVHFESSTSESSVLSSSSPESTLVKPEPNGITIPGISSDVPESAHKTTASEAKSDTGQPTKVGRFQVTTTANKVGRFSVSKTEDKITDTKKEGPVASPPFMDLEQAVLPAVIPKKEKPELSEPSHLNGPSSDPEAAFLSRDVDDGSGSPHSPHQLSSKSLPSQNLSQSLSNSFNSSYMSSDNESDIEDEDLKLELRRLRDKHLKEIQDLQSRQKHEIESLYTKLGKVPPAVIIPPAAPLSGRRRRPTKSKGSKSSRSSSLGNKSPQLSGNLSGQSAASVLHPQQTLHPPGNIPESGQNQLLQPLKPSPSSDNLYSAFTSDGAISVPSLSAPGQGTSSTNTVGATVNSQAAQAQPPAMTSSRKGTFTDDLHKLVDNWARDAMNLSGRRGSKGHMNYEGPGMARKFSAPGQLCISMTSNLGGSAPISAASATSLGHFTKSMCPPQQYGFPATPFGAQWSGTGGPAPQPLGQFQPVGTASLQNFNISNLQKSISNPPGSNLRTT
Chain of Phosphatidylinositol 4,5-bisphosphate 3-kinase catalytic subunit alpha isoform (Homo sapiens), P42336 [M1043I] (P42336 whole entry M1043I, the tested form may be a part, canonical isoform): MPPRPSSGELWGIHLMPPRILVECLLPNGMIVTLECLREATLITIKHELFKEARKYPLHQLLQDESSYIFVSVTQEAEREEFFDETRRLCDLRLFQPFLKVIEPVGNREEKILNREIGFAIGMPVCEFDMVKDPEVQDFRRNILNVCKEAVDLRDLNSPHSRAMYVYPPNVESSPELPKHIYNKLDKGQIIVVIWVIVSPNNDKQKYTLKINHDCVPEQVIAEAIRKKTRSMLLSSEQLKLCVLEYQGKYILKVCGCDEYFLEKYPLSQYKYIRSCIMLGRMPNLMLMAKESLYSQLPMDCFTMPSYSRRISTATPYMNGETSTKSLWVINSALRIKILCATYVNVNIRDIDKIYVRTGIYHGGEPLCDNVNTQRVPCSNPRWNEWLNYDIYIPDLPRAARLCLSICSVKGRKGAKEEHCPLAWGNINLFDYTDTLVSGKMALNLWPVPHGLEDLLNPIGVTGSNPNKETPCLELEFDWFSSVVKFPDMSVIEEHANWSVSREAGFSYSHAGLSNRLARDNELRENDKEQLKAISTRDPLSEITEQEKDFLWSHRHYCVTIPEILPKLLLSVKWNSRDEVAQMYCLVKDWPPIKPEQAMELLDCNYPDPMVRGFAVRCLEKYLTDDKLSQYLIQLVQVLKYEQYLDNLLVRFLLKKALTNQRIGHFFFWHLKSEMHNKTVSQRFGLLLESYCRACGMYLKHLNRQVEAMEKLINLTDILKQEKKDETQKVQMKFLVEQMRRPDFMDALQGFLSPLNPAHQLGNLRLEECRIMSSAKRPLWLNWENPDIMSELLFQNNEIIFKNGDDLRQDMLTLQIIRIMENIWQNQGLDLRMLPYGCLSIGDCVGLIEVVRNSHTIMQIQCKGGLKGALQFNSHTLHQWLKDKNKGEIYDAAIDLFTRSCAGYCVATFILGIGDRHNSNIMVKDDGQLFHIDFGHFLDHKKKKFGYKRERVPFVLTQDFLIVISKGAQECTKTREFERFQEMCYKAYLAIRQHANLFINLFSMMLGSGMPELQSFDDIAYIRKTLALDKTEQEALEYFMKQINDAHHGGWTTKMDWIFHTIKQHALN
Chain of Casein kinase I isoform gamma-1 (Homo sapiens) (Q9HCP0 whole entry, looked up, the tested form may be a part, canonical isoform): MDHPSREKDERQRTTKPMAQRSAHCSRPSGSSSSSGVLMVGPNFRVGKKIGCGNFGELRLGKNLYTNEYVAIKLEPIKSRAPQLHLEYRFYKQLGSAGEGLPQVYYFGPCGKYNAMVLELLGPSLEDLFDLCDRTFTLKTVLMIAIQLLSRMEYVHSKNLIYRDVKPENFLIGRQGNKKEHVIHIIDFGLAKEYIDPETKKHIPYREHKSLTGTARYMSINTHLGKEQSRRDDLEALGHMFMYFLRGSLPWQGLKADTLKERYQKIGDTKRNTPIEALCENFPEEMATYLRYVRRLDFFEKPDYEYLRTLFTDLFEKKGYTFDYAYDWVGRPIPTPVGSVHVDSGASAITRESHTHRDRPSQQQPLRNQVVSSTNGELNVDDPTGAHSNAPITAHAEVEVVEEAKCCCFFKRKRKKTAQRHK
Chain of Interleukin-1 receptor-associated kinase 1 (Homo sapiens) (P51617 whole entry, looked up, the tested form may be a part): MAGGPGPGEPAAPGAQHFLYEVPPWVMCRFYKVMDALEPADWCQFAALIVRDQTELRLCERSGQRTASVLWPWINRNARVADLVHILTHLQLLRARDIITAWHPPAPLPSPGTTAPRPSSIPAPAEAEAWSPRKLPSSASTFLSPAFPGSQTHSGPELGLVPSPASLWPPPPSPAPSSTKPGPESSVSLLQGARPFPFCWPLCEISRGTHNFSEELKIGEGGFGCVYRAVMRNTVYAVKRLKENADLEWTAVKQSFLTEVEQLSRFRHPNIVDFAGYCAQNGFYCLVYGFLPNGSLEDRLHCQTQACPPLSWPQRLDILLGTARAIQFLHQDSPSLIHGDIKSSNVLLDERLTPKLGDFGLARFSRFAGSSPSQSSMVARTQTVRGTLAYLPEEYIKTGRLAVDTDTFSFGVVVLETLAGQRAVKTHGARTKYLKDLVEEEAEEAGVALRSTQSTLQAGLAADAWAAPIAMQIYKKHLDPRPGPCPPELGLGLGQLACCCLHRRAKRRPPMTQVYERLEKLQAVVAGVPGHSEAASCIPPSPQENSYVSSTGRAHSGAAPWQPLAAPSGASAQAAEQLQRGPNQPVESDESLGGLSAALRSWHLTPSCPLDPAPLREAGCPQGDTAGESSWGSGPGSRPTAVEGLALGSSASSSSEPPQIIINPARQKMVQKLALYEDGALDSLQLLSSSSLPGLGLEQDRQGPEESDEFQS
Chain of Mitogen-activated protein kinase 10 (Homo sapiens) (P53779 whole entry, the tested form may be a part): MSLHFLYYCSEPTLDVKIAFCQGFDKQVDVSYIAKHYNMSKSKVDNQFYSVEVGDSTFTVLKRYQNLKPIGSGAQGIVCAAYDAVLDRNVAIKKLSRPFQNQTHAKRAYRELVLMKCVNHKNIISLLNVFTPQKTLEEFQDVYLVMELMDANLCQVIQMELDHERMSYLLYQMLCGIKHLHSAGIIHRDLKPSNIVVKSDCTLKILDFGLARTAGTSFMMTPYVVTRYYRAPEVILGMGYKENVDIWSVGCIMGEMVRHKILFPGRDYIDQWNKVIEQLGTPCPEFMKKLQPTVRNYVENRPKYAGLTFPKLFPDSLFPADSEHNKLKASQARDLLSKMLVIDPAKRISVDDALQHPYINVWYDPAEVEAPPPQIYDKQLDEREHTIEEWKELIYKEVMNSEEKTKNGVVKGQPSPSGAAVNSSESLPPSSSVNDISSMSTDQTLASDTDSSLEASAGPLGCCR

O=C(Nc1cccc([C@@H]2CN(c3ncnc4[nH]ccc34)CCN2CCO)c1)Nc1c(F)cccc1N1CCCC1
inhibition [1]: 100%
inhibition [2]: 84%
inhibition [3]: 100%
inhibition [4]: 74%
inhibition [5]: 23%
inhibition [6]: 97%
inhibition [7]: 94%
inhibition [8]: 100%
inhibition [9]: 66%
inhibition [10]: 64%
inhibition [11]: 100%
inhibition [12]: 99%
inhibition [13]: 97%
inhibition [14]: 88%
inhibition [15]: 97%
inhibition [16]: 56%
inhibition [17]: 100%

O=C(Nc1cccc([C@H]2CCCN(c3ncnc4[nH]ccc34)C2)c1)Nc1ccccc1N1CCCC1
inhibition [18]: 100%
inhibition [19]: 43%
inhibition [20]: 85%
inhibition [21]: 51%
inhibition [22]: 80%
inhibition [23]: 59%
inhibition [24]: 93%
inhibition [25]: 42%
inhibition [26]: 37%
inhibition [27]: 61%
